Legend:
[1] = side effects in the Example 2 patient; type: in vivo, human; settings: Example 2, person, oral
From the text: Example 2 Mature human ingests 7 to 10 drops of emu oil per day, […].

[2] = subjects with age-related memory decline, 60 days of treatment; cited from earlier work
[3] = rats; cited from earlier work
[4] = humans; cited from earlier work
[5] = multi-infarct dementia patients; cited from earlier work

SMILES	side effects [1]	verbal memory functions [2]	anti-anxiety effects [3]	memory and learning [3]	alcohol-induced memory deficits [4]	attention [5]	consolidation of memory [5]	psychological tests of short-term retrieval, long-term retrieval and long-term storage of memory [5]
CC[C@H](C)C(=O)O[C@H]1C[C@@H](C)C=C2C=C[C@H](C)[C@H](CC[C@@H]3C[C@@H](O)CC(=O)O3)[C@H]21 [Mevocore]	has suffered side effects, including hair loss							
O=C(O)[C@@H]1CCC(O)=N1 [pyroglutamate, 2-oxo-pyrrolidone carboxylic acid]		effective in improving verbal memory functions	has anti-anxiety effects	improves memory and learning	effective	significant increase of attention	statistically significant improvement	improvement
